Test results published in patent US20150164899A1, “INHIBITION OF ADAPTOR ASSOCIATED KINASE 1 FOR THE TREATMENT OF PAIN” (priority 2012, published 2015).

Tests used:
[1] = system: formalin-induced paw flinching; assay: formalin paw test; format: in vivo; details: mice
Protocol: See example 5.4.1, above. The same test was used to confirm that the administration of an AAK1 inhibitor can also affect pain response.
Mice were tested for nociception with Automatic Nociception Analyzers (purchased from the Ozaki lab at University of California, San Diego). A metal band was placed around the left hind paw of each mouse with superglue 30 minutes prior to testing. After the 30-minute acclimation period, 20 μl of 5% formalin was subcutaneously injected in the dorsal surface of the left hind paw. Mice were individually housed in cylindrical chambers for 45 minutes. Fresh 5% formalin solution was prepared by diluting formaldehyde (Formalde-fresh 20%, Fisher Scientific, Fair Lawn, N.J.) with distilled water. Investigatory compounds were administered 30 minutes prior to formalin injection.
A computer software recorded flinches per minute, total flinches for Phase I (acute phase=first 8 minutes), and total flinches for Phase II (tonic phase between 20-40 minutes) through an electromagnetic field. See Yaksh T L, Ozaki G, McCumber D, Rathbun M, Svensson C, Malkmus S, Yaksh M C. An automated flinch detecting system for use in the formalin nociceptive bioassay. J Appl Physiol., 2001; 90:2386-402.
Various compounds of the invention were tested at different doses. Gabapentin and pregabalin were used as positive controls. Results are shown below in Table 2, wherein “*” means an effect equal to or greater than 50 percent of that of gabapentin at 200 mpk, “**” means an effect equal to or greater than 100 percent of that of gabapentin at 200 mpk, “sc” means subcutaneous administration, “ip” means in intraperitoneal administration, and “po” means oral administration.

[2] = biological target: T1, AAK1 (full-length human protein) (Homo sapiens, UniProt Q2M2I8); assay: P81 filter plate assay; format: biochemical; details: pyrazolo[1,5-a]pyrimidine-based inhibitors
T1 construct: NP_055726.2
T1 sequence (Q2M2I8 1-863 isoform Q2M2I8-2): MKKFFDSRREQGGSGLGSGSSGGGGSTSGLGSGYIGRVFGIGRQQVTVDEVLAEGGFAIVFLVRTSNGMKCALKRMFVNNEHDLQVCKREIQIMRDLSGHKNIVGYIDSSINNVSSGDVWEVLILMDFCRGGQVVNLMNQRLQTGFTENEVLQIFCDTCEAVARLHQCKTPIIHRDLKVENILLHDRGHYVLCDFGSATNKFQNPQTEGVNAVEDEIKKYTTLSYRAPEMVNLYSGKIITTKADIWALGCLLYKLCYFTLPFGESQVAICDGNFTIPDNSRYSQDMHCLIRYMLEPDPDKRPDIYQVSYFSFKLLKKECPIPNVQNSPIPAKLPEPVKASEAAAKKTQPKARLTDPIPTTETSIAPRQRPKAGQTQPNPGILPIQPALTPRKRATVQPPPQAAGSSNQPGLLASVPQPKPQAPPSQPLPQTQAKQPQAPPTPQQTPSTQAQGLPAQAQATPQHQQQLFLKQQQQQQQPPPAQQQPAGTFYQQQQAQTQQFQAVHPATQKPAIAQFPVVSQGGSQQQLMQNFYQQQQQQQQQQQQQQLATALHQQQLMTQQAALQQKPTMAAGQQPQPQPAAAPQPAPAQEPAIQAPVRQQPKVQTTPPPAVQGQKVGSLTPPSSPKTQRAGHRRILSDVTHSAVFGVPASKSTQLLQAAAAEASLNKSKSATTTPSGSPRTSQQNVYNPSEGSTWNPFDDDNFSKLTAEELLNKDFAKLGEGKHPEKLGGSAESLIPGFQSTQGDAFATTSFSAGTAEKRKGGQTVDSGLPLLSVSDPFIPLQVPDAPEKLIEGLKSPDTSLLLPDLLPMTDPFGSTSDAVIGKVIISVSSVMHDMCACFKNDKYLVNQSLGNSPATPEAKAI
Protocol: Compounds were serially diluted into a Labcyte LDV plate (Labcyte, cat# LP-0200) using a Mutiprobe (PerkinElmer) and Biomek FX (Beckman Coulter) so that the highest compound concentration was at 96 μM. Compounds were then pinged (75 nL per well) into a Greiner 384-well reaction plate (Greiner, #781076) using an ECHO 550 Liquid Handler (Labcyte). A total of 12 μl reaction buffer (IMAP buffer containing Tween and DTT, from Molecular Devices) was then added to each well of columns 1 and 13 for the negative controls and 12 μl of 2×AAK1 (0.2 nM full-length human protein, NCBI accession no. NP_055726.2) was added to the remaining wells. Enzyme was then pre-incubated with compound for 10 minutes at RT. Reactions were initiated upon Minitrak (PerkinElmer) addition of 12 μl substrate mix containing 2× Mu2 (0.2 μM, full length human protein), 2× cold ATP (2 μM), and 1.3 μCi of hot ^33P-ATP. Reactions proceeded for one hour at RT. Meanwhile, Millipore 384-well P81 filter plates (Millipore, catalog # MZPHN0W10) were placed on a plate washer (Zoom Z W, from Titertek) and pre-wet with 50 μl 1% phosphoric acid. Kinase reactions were then stopped upon addition of 24 μl of 2% phosphoric acid to each well and the Minitrak was then used to transfer 40 μl from each well into the pre-wet Millipore 384-well P81 filter plates. Reaction mixtures were incubated for 10 minutes at RT in the P81 plates, followed by washing five times with 100 μl/well of 1% phosphoric acid using the Zoom filter washer. The bottom of each filter plate was sealed followed by addition of 20 μl Microscint 40 to each well, sealing the top of the plates with Flashplate cover, and then waiting one hour until reading on the TopCount (PerkinElmer).

[3] = biological target: T2, AAK1 (full length human) in transfected HEK293F cells (Homo sapiens, UniProt Q2M2I8); assay: HEK281 cell-based assay (phospho-mu2 Western blot); details: HEK281 cell-based assay; pyrazolo[1,5-a]pyrimidine-based inhibitors; read-out: CBA IC50
T2 construct: expressed in transfected cells; host or cells: HEK293F
T2 sequence (Q2M2I8 1-863 isoform Q2M2I8-2): as above
Protocol: HEK293F cells were cultured in media containing DMEM (Gibco, cat. #11965), 10% FBS (SAFC Biosciences, cat. #12103C), 1×GPS (glutamine, penicillin and streptomycin). On day one, cells were plated on a 10 cm dish so that they are ˜80% confluent at time of transfection. Roughly 12 million cells were in a 10 cm dish at time of transfection. On day two, each dish was transfected with 48 ug DNA and 144 ul Lipofectamine 2000 (Invitrogen, cat.#11668-019). The DNA was comprised of a mixture (per 10 cm dish) containing 3 ug AAK1/HA/pIRES (full length human, NCBI accession no. NP_055726.2), 45 μg Flag/AP2MI/pcDNA (full length human), and 1.5 ml OPTI-MEM. The Lipofectamine 2000 is made up of a mixture (per 10 cm dish) containing 144 μl Lipofectamine 2000 and 1.5 ml OPTI-MEM. Each mixture was transferred to individual 15 ml tubes and incubated at RT for 5 minutes, and then the two mixes were combined and incubated at RT for 20 minutes. Growth media was then aspirated from each 10 cm plate and replaced with 10 ml of DMEM+10% FBS (no GPS). Finally, 3 ml DNA/Lipofectamine mix was added to each 10 cm dish and mix gently followed by incubate of plate overnight at 37° C. and 5% CO2.
On day three, compounds were diluted in 100% DMSO at 1000× final concentration, followed by 3-fold serial dilutions for a total of 5 concentrations tested. Four compounds were tested per 10 cm dish. One ul of each compound dilution was then pipetted into a deep-well, 96-well plate, followed by addition of 500 μl DMEM+0.5% FBS into each well for a 2× final concentration of each compound. Cells were resuspended in a 10 cm dish by simple pipetting (HEK293 cells come off the plate that easy at this point) and then transferred to a 50 ml conical tube and pelleted by centrifugation at 1000 rpm for 5 min. Cell pellets were then resuspended in 2.75 ml DMEM+0.5% FBS per 10 cm dish and 100 μl of cell suspension transferred into each well of 96-well TC plate. Finally, 100 μl of 2× compound diluted in DMEM+0.5% FBS was then added into wells containing cell suspension for a 1× final concentration. Plates were then incubated at 37° C. and 5% CO2 for 3 hours followed by transferring of cell suspensions from each well into 12-tube PCR strips. The PCR strips were spun in a tip rack at 1000 rpm for 5 minutes to pellet cells and media was then removed by pipetting without disturbing the cell pellet.
To prepare for Western Blot analysis, cell pellets were resuspend in 40 ul 1×LDS-PAGE sample buffer (Invitrogen, cat.# NP0008)+2× Halt phophatase and protease inhibitor cocktail (Thermo Scientific, cat.#1861284), followed by sonicating each with microtip sonicator set at 5 for 8-10 seconds. Five ul of 10× NuPage Sample Reducing Agent (with […]) was to each sample followed by heat denaturing at 70 C. for 10 min on PCR machine. A total of 10 μl per sample was loaded into each lane of a 4-20% Tris-Glycine Criterion 26-well gel (Biorad, cat.#345-0034) for the phospho-mu2 blot and 10 μl per lane in a 4-12% Bis-Tris (+MES buffer) NuPAGE 26-well gel (Invitrogen, cat.# WG1403BX10) for the mu2 blot. For controls, 2 ng of phospho-mu2 or 20 ng mu2/Flag proteins were loaded in the last well of each gel. After SDS-PAGE, samples on each gel were transferred to PVDF membrane using an iBlot and membranes were blocked for one hour in TBST+5% milk, followed by wash 3× for 5-10 min with TBST. Criterion gels were probed with rabbit anti-phospho-mu2 (1:5000; a rabbit polyclonal antibody produced by New England Peptide and affinity purified at Lexicon) in TBST+5% BSA, whereas, NuPAGE gels were probed with mouse anti-Flag (1:500; Sigma, cat.# F1804) in TBST+5% milk, and these primary antibodies were incubated overnight at 4° C. on a rocker.

## COc1ncccc1-c1cnc2ccc(N3CC[C@H](N(C)C(=O)OC(C)C)C3)nn12 [(S)-isopropyl (1-(3-(2-methoxypyridin-3-yl)imidazo[1,2-b]pyridazin-6-yl)pyrrolidin-3-yl)(methyl)carbamate]
[1]; 10 mpk po
  Effect: * (an effect equal to or greater than 50% of that of gabapentin at 200 mpk)
[1]; 30 mpk po
  Effect: ** (an effect equal to or greater than 100% of that of gabapentin at 200 mpk)
[1]; 60 mpk po
  Effect: ** (an effect equal to or greater than 100% of that of gabapentin at 200 mpk)

## COc1ccccc1-c1cnc2ccc(N3CCN(C(=O)OC(C)C)CC3)nn12 [isopropyl 4-(3-(2-methoxyphenyl)imidazo[1,2-b]pyridazin-6-yl)piperazine-1-carboxylate]
[1]; 30 mpk sc
  Effect: ** (an effect equal to or greater than 100% of that of gabapentin at 200 mpk)
[1]; 60 mpk sc
  Effect: ** (an effect equal to or greater than 100% of that of gabapentin at 200 mpk)

## NCc1ccc(-c2cnc3ccc(NCCOC4CCCC4)nn23)cc1 [3-(4-(aminomethyl)phenyl)-N-(2-(cyclopentyloxy)ethyl)imidazo[1,2-b]pyridazin-6-amine]
[1]; 60 mpk sc
  Effect: ** (an effect equal to or greater than 100% of that of gabapentin at 200 mpk)
[1]; 100 mpk sc
  Effect: ** (an effect equal to or greater than 100% of that of gabapentin at 200 mpk)

## CC(C)(C)OCCNc1ccc2ncc(-c3ccc(CN)cc3)n2n1 [3-(4-(aminomethyl)phenyl)-N-(2-(tert-butoxy)ethyl)imidazo[1,2-b]pyridazin-6-amine]
[1]; 60 mpk sc
  Effect: ** (an effect equal to or greater than 100% of that of gabapentin at 200 mpk)

## CN(CCNc1ccc2ncc(-c3ccc(C(N)=O)cc3)n2n1)C(=O)OC(C)(C)C [tert-butyl (2-((3-(4-carbamoylphenyl)imidazo[1,2-b]pyridazin-6-yl)amino)ethyl)(methyl)carbamate]
[1]; 60 mpk sc
  Effect: ** (an effect equal to or greater than 100% of that of gabapentin at 200 mpk)
[1]; 100 mpk po
  Effect: ** (an effect equal to or greater than 100% of that of gabapentin at 200 mpk)

## CC(C)Oc1ccccc1-c1cnn2ccc(NC[C@@H]3CCCN3C(=O)OC(C)(C)C)nc12
[2]
  IC50: ≤ 10 nM
[3]
  IC50: ≤ 10 nM

## COc1ncccc1-c1cnn2ccc(N3CCN(C(=O)OCCF)CC3)nc12
[2]
  IC50: ≤ 10 nM
[3]
  IC50: ≤ 10 nM

## COc1ccncc1-c1cnn2ccc(N3CCN(C(=O)OC(C)C)CC3)nc12
[2]
  IC50: ≤ 10 nM
[3]
  IC50: ≤ 100 nM

## COc1cnccc1-c1cnn2ccc(NC[C@@H]3CCC(=O)N3CCC(C)(C)C)nc12
[2]
  IC50: ≤ 10 nM
[3]
  IC50: ≤ 100 nM

## COc1cc(-c2cnn3ccc(N4CCN(C(=O)OC(C)C)CC4)nc23)c(OC)nn1
[2]
  IC50: ≤ 10 nM
[3]
  IC50: ≤ 10 nM

## COCc1ccccc1-c1cnn2ccc(NC[C@@H]3CCCN3C(=O)OC(C)(C)C)nc12
[2]
  IC50: ≤ 10 nM
[3]
  IC50: ≤ 100 nM

## CCOc1ccccc1-c1cnn2ccc(NC[C@@H]3CCC(=O)N3CCC(C)(C)C)nc12
[2]
  IC50: ≤ 10 nM
[3]
  IC50: ≤ 100 nM

## COc1ncccc1-c1cnn2ccc(N3CCN(C(=O)OC4CCCC4)CC3)nc12
[2]
  IC50: ≤ 10 nM
[3]
  IC50: ≤ 10 nM

## CC(C)OC(=O)N1CCN(c2ccn3ncc(-c4cccnc4OC(C)C)c3n2)CC1
[2]
  IC50: ≤ 10 nM
[3]
  IC50: ≤ 100 nM

## COc1ncccc1-c1cnn2ccc(N3CCN(C(=O)NC(C)(C)C)CC3)nc12
[2]
  IC50: ≤ 10 nM
[3]
  IC50: ≤ 100 nM

## COc1ccc(-c2cnn3ccc(NC[C@@H]4CCCN4C(=O)OC(C)(C)C)nc23)cc1
[2]
  IC50: ≤ 10 nM
[3]
  IC50: ≤ 10 nM

## COc1ncccc1-c1cnn2ccc(N3CCN(C(=O)NC(C)C)CC3)nc12
[2]
  IC50: ≤ 10 nM
[3]
  IC50: ≤ 10 nM

## CN(C(=O)CC(F)(F)F)[C@H]1CCN(c2ccn3ncc(-c4ccccn4)c3n2)C1
[2]
  IC50: ≤ 10 nM
[3]
  IC50: ≤ 10 nM

## COC(=O)N1CCC[C@H]1CNc1ccn2ncc(-c3ccccc3OC)c2n1
[2]
  IC50: ≤ 10 nM
[3]
  IC50: ≤ 100 nM

## COc1ncccc1-c1cnn2ccc(N3CCN(C(=O)N(C)C(C)(C)C)CC3)nc12
[2]
  IC50: ≤ 10 nM
[3]
  IC50: ≤ 100 nM

## CC(C)OC(=O)N1CCN(c2ccn3ncc(-c4ccccn4)c3n2)CC1
[2]
  IC50: ≤ 10 nM
[3]
  IC50: ≤ 100 nM

## CC(C)OC(=O)N1CCN(c2ccn3ncc(-c4cccnc4O)c3n2)CC1
[2]
  IC50: ≤ 10 nM
[3]
  IC50: ≤ 100 nM

## COc1ncccc1-c1cnn2ccc(N3CCN(C(=O)N(C)C(C)C)CC3)nc12
[2]
  IC50: ≤ 10 nM
[3]
  IC50: ≤ 100 nM

## COc1ccccc1-c1cnn2ccc(NC[C@@H]3CCC(=O)N3CCC(C)(C)C)nc12
[2]
  IC50: ≤ 10 nM
[3]
  IC50: ≤ 10 nM

## CC(C)OC(=O)N1CCN(c2ccn3ncc(-c4cccnc4Cl)c3n2)CC1
[2]
  IC50: ≤ 100 nM
[3]
  IC50: ≤ 1000 nM

## CCCC(=O)N1CCC[C@H]1CNc1ccn2ncc(-c3ccccc3OC)c2n1
[2]
  IC50: ≤ 10 nM
[3]
  IC50: ≤ 100 nM

## COc1ccccc1-c1cnn2ccc(N3CC[C@H](N(C)C(=O)OC(C)(C)C)C3)nc12
[2]
  IC50: ≤ 10 nM
[3]
  IC50: ≤ 100 nM

## COc1ccccc1-c1cnn2ccc(NC[C@@H]3CCCN3C(=O)OC(C)C)nc12
[2]
  IC50: ≤ 10 nM
[3]
  IC50: ≤ 10 nM

## CC(C)(C)NC(=O)N1CCC[C@H]1CNc1ccn2ncc(Br)c2n1
[2]
  IC50: ≤ 10 nM
[3]
  IC50: ≤ 10 nM
